Measurements: US20040204863A1, “Crystal of a kinase-ligand complex and methods of use” (priority 1999, published 2004)
pIC50: −log10 of the molar value.

Legend:
[1] = biological target: Lck (Homo sapiens, UniProt P06239); details: reported in [51]; cited from earlier work
[2] = biological target: T1, ZAP-70 (Homo sapiens, UniProt P43403); details: reported in [51]; cited from earlier work
T1 sequence (P43403 1-619): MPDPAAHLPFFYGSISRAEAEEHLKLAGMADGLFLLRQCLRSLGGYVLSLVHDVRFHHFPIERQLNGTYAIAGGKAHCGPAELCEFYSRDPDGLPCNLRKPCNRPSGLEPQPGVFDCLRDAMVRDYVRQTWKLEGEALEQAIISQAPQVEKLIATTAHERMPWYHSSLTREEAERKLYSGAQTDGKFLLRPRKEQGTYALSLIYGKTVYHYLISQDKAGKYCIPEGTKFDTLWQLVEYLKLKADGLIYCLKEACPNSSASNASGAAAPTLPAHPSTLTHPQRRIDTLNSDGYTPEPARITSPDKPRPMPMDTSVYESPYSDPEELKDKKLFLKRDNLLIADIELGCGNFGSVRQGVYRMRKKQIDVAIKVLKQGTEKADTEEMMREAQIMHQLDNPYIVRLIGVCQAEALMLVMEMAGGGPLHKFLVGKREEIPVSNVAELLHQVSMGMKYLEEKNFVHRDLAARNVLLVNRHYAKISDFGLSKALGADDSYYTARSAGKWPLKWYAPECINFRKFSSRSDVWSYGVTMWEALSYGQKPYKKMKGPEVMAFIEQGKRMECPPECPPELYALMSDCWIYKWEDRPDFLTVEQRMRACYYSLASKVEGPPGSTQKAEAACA

[3] = system: IL-2 production in hPBL T-cells; experiment: T-cell activation: TCR-induced IL-2 secretion (ELISA); assay type: cell-based; details: human T-cell cultures, anti-CD3/anti-CD28 stimulation, 20 hours, FIG. 7B; read-out: IC50 inhibition of IL-2 production
Method: T-cell activation. Whole blood was obtained from normal donors and human peripheral blood lymphocytes (hPBL) were isolated by ficol-hypaque density centrifugation. T-cells were then purified from the hPBL by negative selection using an R&D column following the manufacturers directions (R&D Systems, Minneapolis, Minn.). A 96-well flat-bottomed plate was coated with 10 μg/ml of goat anti-mouse (GAM)-IgG1 (Caltag, Burlingame, Calif.) in PBS overnight at 4C. The GAM-coated plate was flicked out and anti-CD3 mAb (UCHT-1, Coulter/Immunotech, Miami, Fla.) is added at 0.2 μg/ml in AIMV medium (Gibco, Grand Island, N.Y.) for 3 hr. at 37C. Purified T-cells were pre-incubated at 1×10^5/well in AIM V with or without compound for 30 minutes then transferred to the anti-CD3 capture plate. Finally, anti-CD28 (Pharmingen, San Diego, Calif.) in AIMV (150 ng/ml final) was added to each well. Cells were incubated for 20 hours at 37C in 5% CO2 then supernatants were tested by ELISA for cytokine levels (Endogen, Woburn, Mass.).

[4] = system: TCR ζ-chain (p23) and 70 kD protein phosphorylation in Jurkat cells; assay type: cell-based; details: TCR-induced phosphotyrosine, western blot, FIG. 7C
Method: Phosphotyrosine western blotting. […] Cells were then transferred to 37° C. water bath for 1 minute. Stimulation was stopped by the addition of 5 volumes of cold PBS containing 200 μM sodium orthovanadate. Cells were spun down and lysed in 150 mM Tris/10 mM HEPES buffer, pH 7.3, containing 1% Triton X-100 and Complete protease inhibitor cocktail (Boehringer Mannheim, Germany) for 30 minutes on ice. […] Blots were probed with anti-phosphotyrosine (4G10, Upstate Biotechnology, Inc., Saranac Lake, N.Y.) and developed using ECL-plus following the manufacturers directions (Amersham, Arlington Heights, Ill.).

Chain of Lck (P06239 whole entry, species assumed): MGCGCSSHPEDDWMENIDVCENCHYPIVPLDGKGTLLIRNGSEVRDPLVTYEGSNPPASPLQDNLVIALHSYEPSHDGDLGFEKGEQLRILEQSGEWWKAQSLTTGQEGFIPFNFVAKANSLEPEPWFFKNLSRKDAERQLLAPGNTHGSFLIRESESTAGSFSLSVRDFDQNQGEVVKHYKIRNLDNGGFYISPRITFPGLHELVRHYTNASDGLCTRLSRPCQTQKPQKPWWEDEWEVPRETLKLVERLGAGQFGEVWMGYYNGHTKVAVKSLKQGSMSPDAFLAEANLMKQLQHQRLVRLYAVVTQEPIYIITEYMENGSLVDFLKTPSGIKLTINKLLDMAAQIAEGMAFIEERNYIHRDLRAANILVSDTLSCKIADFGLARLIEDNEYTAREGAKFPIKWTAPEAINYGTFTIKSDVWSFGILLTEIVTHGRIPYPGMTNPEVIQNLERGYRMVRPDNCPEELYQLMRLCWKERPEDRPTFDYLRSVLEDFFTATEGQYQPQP

In the case of `Cc1ccc(-c2nn(C(C)(C)C)c3ncnc(N)c23)cc1` [PP1], the “inhibitory activity against Lck compared with PP2” value [1] is given as “approximately the same inhibitory activity against Lck”.
In the case of `CC(C)(C)n1nc(-c2ccc(Cl)cc2)c2c(N)ncnc21` [PP2], the pIC50 [2] is listed as at most 4.00, the pIC50 [3] is listed as 6.22 and the “inhibition of Lck-dependent phosphorylation of the TCR ζ-chain (p23)” value [4] is listed as “dose-dependent inhibition”. The “inhibition of phosphorylation of a 70 kD protein (likely ZAP-70)” value [4] was “inhibited the phosphorylation of a 70 kD protein”.
Work on `CN[C@@H]1C[C@H]2O[C@@](C)([C@@H]1OC)n1c3ccccc3c3c4c(c5c6ccccc6n2c5c31)C(=O)NC4` [staurosporine] yielded a pIC50 [3] of 7.22.
